Here are results for 18 compounds from patent EP0942911B1, “BENZOPYRANOPYRROLE AND BENZOPYRANOPYRIDINE ALPHA-1 ADRENERGIC COMPOUNDS” (Abbott Laboratories, priority 1996, dated 1998).

Where a name gives a salt, the structure may show the parent alone.

The first assay addresses T1, α-1B adrenoreceptor (Rattus norvegicus, UniProt P15823).
T1 construct: from tissue; host or cells: rat spleen
T1 sequence (P15823 1-515): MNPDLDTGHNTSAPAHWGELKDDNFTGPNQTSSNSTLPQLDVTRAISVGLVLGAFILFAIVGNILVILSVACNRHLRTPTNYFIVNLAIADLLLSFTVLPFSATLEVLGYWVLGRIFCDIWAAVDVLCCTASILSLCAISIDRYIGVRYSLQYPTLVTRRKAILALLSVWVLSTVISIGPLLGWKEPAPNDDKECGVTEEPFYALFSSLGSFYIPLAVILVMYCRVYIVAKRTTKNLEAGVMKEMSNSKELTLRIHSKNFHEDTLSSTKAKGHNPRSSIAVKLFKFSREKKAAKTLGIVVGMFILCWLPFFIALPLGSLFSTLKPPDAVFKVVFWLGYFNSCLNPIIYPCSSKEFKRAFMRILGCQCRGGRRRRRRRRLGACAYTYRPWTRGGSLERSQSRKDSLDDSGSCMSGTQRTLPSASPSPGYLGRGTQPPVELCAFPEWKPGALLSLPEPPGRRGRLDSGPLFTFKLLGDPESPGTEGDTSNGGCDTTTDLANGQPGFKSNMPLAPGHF
Kind of assay: cell-based. Conditions: phenylephrine-induced contraction; Schild plot. The method, boiled down:
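Phenylephrine dose-response curves for contraction were repeated against increasing test-agent concentrations. pA2 was derived by Schild plot [[…] vs log molarity of test agent].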
For `COc1cnc2sc3c(=O)n(CCCCN4CC5COc6cccc(OC)c6[C@@H]5C4)c(=O)[nH]c3c2n1.Cl` (stereo in doubt) [Example 43, 3-[4-((3aS,9bR)-trans-9-Methoxy-1,2,3,3a,4,9b-hexahydro-[1]-benzopyrano[3,4-c]pyrrol-2-yl)butyl]-8-methoxy-pyrazino[2',3':4,5]thieno[3,2-d]pyrimidine-2,4(1H,3H)-dione hydrochloride], the “In Vitro Characterization (pA2) Rat Spleen” value was 7.66.
On the same count and under the same terms, the result for `COc1cc2nc(N3CCN(C(=O)C4COc5ccccc5O4)CC3)nc(N)c2cc1OC` (stereo not drawn) [Doxazosin, doxazosin, reference compound] reads 9.51.

Still in this assay, the particulars now being: phenylephrine-induced contraction; Schild plot; read-out: In Vitro Characterization (pA2) Rat Spleen (converted).
In the case of `O=c1[nH]c2c(sc3cccnc32)c(=O)n1CCCCN1C[C@@H]2COc3ccccc3[C@@H]2C1` (racemic) [Example 70, 3-[4-((±)-cis-1,2,3,3a,4,9b-hexahydro-[1]-benzopyrano[3,4-c]pyrrol-2-yl)butyl]-pyrido[2',3':4,5]thieno[3,2-d]pyrimidine-2,4(1H,3H)-dione dihydrochloride], the Kb was 87.1 nM.
Still for that read-out and setting: for `COc1cc2[nH]c(=O)n(CCCCN3C[C@@H]4COc5ccccc5[C@@H]4C3)c(=O)c2cc1OC` (racemic) [Example 81, 3-[4-((±1-cis-1,2,3,3a,4,9b-hexahydro-[1]-benzopyrano[3,4-c]pyrrol-2-yl)butyl]-6,7-dimethoxy-quinazoline-2,4(1H,3H)-dione hydrochloride] the value was 38.9 nM.
On the same count and under the same terms, for `COc1cccc2c1[C@@H]1CN(CCCCn3c(=O)[nH]c4c(sc5c(OC)ccnc54)c3=O)C[C@H]1CO2` [Example 17, 3-[4-((3aS,9bR)-trans-9-Methoxy-1,2,3,3a,4,9b-hexahydro-[1]-benzopyrano[3,4-c]pyrrol-2-yl)butyl]-6-methoxy-pyrido[2',3':4,5]thieno[3,2-d]pyrimidine-2,4(1H,3H)-dione dihydrochloride] the value was 11 nM.
Same read-out and setting: the result for `COc1cccc2c1[C@@H]1CN(CCCCn3c(=O)[nH]c4c(sc5c(OC)ccnc54)c3=O)C[C@@H]1CO2` [Example 18, 3-[4-((3aR,9bR)-cis-9-Methoxy-1,2,3,3a,4,9b-hexahydro[1]-benzopyrano[3,4-c]pyrrol-2-yl)butyl]-6-methoxy-pyrido[2',3':4,5]thieno[3,2-d]pyrimidine-2,4(1H,3H)-dione dihydrochloride] reads 19.5 nM; that for `COc1cccc2c1[C@@H]1CN(CCCCn3c(=O)[nH]c4c(sc5ccc(Cl)nc54)c3=O)C[C@H]1CO2` [Example 25, 3-[4-((3aS,9bR)-trans-9-Methoxy-1,2,3,3a,4,9b-hexahydro-[1]-benzopyrano[3,4-c]pyrrol-2-yl)butyl]-8-chloro-pyrido[2',3':4,5]thieno[3,2-d]pyrimidine-2,4(1H,3H)-dione dihydrochloride], 2 nM.
On to `COc1cccc2c1[C@@H]1CN(CCCCn3c(=O)[nH]c4c(sc5ccncc54)c3=O)C[C@@H]1CO2` [Example 28, 3-[4-((3aR,9bR)-cis-9-Methoxy-1,2,3,3a,4,9b-hexahydro-[1]-benzopyrano[3,4-c]pyrrol-2-yl)butyl]-pyrido[3',4':4,5]thieno[3,2-d]pyrimidine-2,4(1H,3H)-dione dihydrochloride], for which the Kb is 4.37 nM.
In the case of `COc1cccc2c1[C@@H]1CN(CCCCn3c(=O)[nH]c4c(sc5cnccc54)c3=O)C[C@@H]1CO2` [Example 29, 3-[4-((3aR,9bR)-cis-9-Methoxy-1,2,3,3a,4,9b-hexahydro-[1]-benzopyrano[3,4-c]pyrrol-2-yl)butyl]-pyrido[4',3':4,5]thieno[3,2-d]pyrimidine-2,4(1H,3H)-dione dihydrochloride], the Kb was 12.3 nM.
Same read-out and setting: the result for `COc1ccc2sc3c(=O)n(CCCCN4C[C@@H]5COc6cccc(OC)c6[C@@H]5C4)c(=O)[nH]c3c2n1` [Example 30, 3-[4-((3aR,9bR)-cis-9-Methoxy-1,2,3,3a,4,9b-hexahydro-[1]-benzopyrano[3,4-c]pyrrol-2-yl)butyl]-8-methoxy-pyrido[2',3':4,5]thieno[3,2-d]pyrimidine-2,4(1H,3H)-dione hydrochloride] reads 21.4 nM.
For `COc1cnc2sc3c(=O)n(CCCCN4C[C@@H]5COc6cccc(OC)c6[C@@H]5C4)c(=O)[nH]c3c2n1` [Example 31, 3-[4-((3aR,9bR)-cis-9-Methoxy-1,2,3,3a,4,9b-hexahydro-[1]-benzopyrano[3,4-c]pyrrol-2-yl)butyl]-8-methoxy-pyrazino[2',3':4,5]thieno[3,2-d]pyrimidine-2,4(1H,3H)-dione hydrochloride], the Kb is 14.1 nM.
As for `COc1cccc2c1[C@@H]1CN(CCCCn3c(=O)[nH]c4c(sc5ncccc54)c3=O)C[C@@H]1CO2` [Example 34, 3-[4-((3aR,9bR)-cis-9-Methoxy-1,2,3,3a,4,9b-hexahydro-[1]-benzopyrano[3,4-c]pyrrol-2-yl)butyl]-pyrido[3',2':4,5]thieno[3,2-d]pyrimidine-2,4(1H,3H)-dione hydrochloride], the Kb was 7.59 nM.
On the same count and under the same terms, for `COc1cccc2c1[C@@H]1CN(CCCCn3c(=O)[nH]c4c(sc5nc(C)ccc54)c3=O)C[C@@H]1CO2` [Example 35, 3-[4-((3aR,9bR)-cis-9-Methoxy-1,2,3,3a,4,9b-hexahydro-[1]-benzopyrano[3,4-c]pyrrol-2-yl)butyl]-7-methyl-pyrido[3',2':4,5]thieno[3,2-d]pyrimidine-2,4(1H,3H)-dione hydrochloride] the value was 11 nM; for `COc1cccc2c1[C@@H]1CN(CCCCn3c(=O)[nH]c4c(sc5nccc(OC)c54)c3=O)C[C@@H]1CO2` [Example 36, 3-[4-((3aR,9bR)-cis-9-Methoxy-1,2,3,3a,4,9b-hexahydro-[1]-benzopyrano[3,4-c]pyrrol-2-yl)butyl]-9-methoxy-pyrido[3',2':4,5]thieno[3,2-d]pyrimidine-2,4(1H,3H)-dione hydrochloride], 8.13 nM; for `COc1cccc2c1[C@@H]1CN(CCCCn3c(=O)[nH]c4c(sc5ccc(Cl)nc54)c3=O)C[C@@H]1CO2` [Example 37, 3-[4-((3aR,9bR)-cis-9-Methoxy-1,2,3,3a,4,9b-hexahydro-[1]-benzopyrano[3,4-c]pyrrol-2-yl)butyl]-8-chloro-pyrido[2',3':4,5]thieno[3,2-d]pyrimidine-2,4(1H,3H)-dione hydrochloride], 9.33 nM.
On to `COc1cccc2c1[C@@H]1CN(CCCCn3c(=O)[nH]c4c(sc5cc(Cl)cnc54)c3=O)C[C@@H]1CO2` [Example 38, 3-[4-((3aR,9bR)-cis-9-Methoxy-1,2,3,3a,4,9b-hexahydro-[1]-benzopyrano[3,4-c]pyrrol-2-yl)butyl]-7-chloro-pyrido[2',3':4,5]thieno[3,2-d]pyrimidine-2,4(1H,3H)-dione hydrochloride], for which the Kb is 19.5 nM.
Still for that read-out and setting: the result for `COc1cccc2c1[C@@H]1CN(CCCCn3c(=O)[nH]c4c(sc5nc(-c6ccccc6)cnc54)c3=O)C[C@@H]1CO2` [Example 40, 3-[4-((3aR,9bR)-cis-9-Methoxy-1,2,3,3a,4,9b-hexahydro-[1]-benzopyrano[3,4-c]pyrrol-2-yl)butyl]-7-phenyl-pyrazino[2',3':4,5]thieno[3,2-d]pyrimidine-2,4(1H,3H)-dione hydrochloride] reads 759 nM; that for `COc1cccc2c1[C@@H]1CN(CCCCn3c(=O)[nH]c4c(sc5ccncc54)c3=O)C[C@H]1CO2` [Example 41, 3-[4-((3aS,9bR)-trans-9-Methoxy-1,2,3,3a,4,9b-hexahydro-[1]-benzopyrano[3,4-c]pyrrol-2-yl)butyl]-pyrido[3',4':4,5]thieno[3,2-d]pyrimidine-2,4(1H,3H)-dione dihydrochloride], 3.98 nM.
